Tests used:
[1] = molecular target: T1, human recombinant adrenergic α1D receptor (Homo sapiens, UniProt P25100); assay: Adrenergic α1D radioligand binding assay ([3H]Prazosin); details: 0.1 μM compound; read-out: Percentage inhibition of ligand binding, Adrenergic α1D
T1 construct: expressed in transfected cells; host or cells: HEK-293 cells
T1 sequence (P25100 1-572): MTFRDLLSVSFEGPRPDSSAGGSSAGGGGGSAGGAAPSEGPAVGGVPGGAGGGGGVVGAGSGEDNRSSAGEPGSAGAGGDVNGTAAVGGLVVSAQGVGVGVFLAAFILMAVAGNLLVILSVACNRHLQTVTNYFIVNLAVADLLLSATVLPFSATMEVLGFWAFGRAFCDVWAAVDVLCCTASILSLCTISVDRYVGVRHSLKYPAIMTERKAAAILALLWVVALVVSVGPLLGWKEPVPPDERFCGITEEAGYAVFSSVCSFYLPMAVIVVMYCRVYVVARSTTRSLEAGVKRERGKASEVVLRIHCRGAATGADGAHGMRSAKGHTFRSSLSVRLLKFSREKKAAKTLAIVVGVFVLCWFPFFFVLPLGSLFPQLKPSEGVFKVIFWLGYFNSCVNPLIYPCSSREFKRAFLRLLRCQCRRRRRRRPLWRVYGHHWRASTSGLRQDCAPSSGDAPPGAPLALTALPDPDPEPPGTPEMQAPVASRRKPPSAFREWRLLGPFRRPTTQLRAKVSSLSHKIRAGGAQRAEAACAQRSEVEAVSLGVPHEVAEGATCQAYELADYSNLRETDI
Procedure: To evaluate in radioligand binding assays the activity of compounds of the invention, human recombinant adrenergic α1D receptor expressed in human embryonic kidney (HEK-293) cells (Kenny, B. et al, Br. J. Pharmacol. 115(6):981, 1995) in a 50 mM Tris-HCl buffer, pH 7.4, was used. Compounds were incubated with 0.6 nM [3H]Prazosin for 60 min at 25° C. Non-specific binding was estimated in the presence of 10 μM phentolamine. Receptor proteins were filtered and washed, the filters were then counted to determine [3H]Prazosin specifically bound. Compounds were screened at 1 μM or lower, using 1% DMSO as vehicle. Biochemical assay results are presented as the percent inhibition of specific binding in Tables B1A-B1D.

[2] = molecular target: T2, human recombinant adrenergic α2A receptor (Homo sapiens, UniProt P08913); assay: Adrenergic α2A radioligand binding assay ([3H]MK-912); details: 0.1 μM compound; read-out: Percentage inhibition of ligand binding, Adrenergic α2A
T2 construct: expressed in transfected cells; host or cells: insect Sf9 cells
T2 sequence (P08913 1-465): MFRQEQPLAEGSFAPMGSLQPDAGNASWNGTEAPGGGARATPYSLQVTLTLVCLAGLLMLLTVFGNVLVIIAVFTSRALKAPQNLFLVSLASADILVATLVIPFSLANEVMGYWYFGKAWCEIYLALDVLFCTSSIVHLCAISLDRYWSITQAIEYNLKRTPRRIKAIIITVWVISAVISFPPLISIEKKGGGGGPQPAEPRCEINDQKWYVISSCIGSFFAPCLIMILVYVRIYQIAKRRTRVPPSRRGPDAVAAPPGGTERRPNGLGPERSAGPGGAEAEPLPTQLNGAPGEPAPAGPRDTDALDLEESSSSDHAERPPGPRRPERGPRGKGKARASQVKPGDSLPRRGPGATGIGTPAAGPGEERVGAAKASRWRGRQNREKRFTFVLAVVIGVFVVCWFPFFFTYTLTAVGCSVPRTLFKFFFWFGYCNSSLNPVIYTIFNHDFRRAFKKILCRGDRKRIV
Procedure: To evaluate in radioligand binding assays the activity of compounds of the invention, human recombinant adrenergic α2A receptor expressed in insect Sf9 cells (Uhlen, S. et al, J. Pharmacol. Exp. Ther. 271:1558, 1994) in a modified Tris-HCl buffer (50 mM Tris-HCl, pH 7.4, 12.5 mM MgCl2, 2 mM EDTA) was used. Compounds of invention were incubated with 1 nM [^3H]MK-912 for 60 min at 25° C. MK912 was (2S-trans)-1,3,4,5′,6,6′,7,12b-octahydro-1′,3′-dimethyl-spiro[2H-benzofuro[2,3-a]quinolizine-2,4′(1′H)-pyrimidin]-2′(3′H)-one hydrochloride Non-specific binding was estimated in the presence of 10 μM WB-4101 (2-(2,6-Dimethoxyphenoxyethyl)aminomethyl-1,4-benzodioxane hydrochloride). Receptor proteins were filtered and washed, the filters were then counted to determine [^3H]MK-912 specifically bound. Compounds were screened at 1 μM or lower, using 1% DMSO as vehicle. Compounds of the invention were tested in this biochemical assay and percent inhibition of specific binding was determined. Biochemical assay results are presented as the percent inhibition of specific binding in Tables B1A-B1D.

[3] = molecular target: T3, rat adrenergic α1B receptor obtained from Wistar Rat liver (Rattus norvegicus, UniProt P15823); assay: Adrenergic α1B radioligand binding assay ([3H]Prazosin); details: 0.1 μM compound; read-out: Percentage inhibition of ligand binding, Adrenergic α1B
T3 construct: rat adrenergic α1B receptor obtained from Wistar Rat liver; from tissue; host or cells: Wistar rat liver
T3 sequence (P15823 1-515): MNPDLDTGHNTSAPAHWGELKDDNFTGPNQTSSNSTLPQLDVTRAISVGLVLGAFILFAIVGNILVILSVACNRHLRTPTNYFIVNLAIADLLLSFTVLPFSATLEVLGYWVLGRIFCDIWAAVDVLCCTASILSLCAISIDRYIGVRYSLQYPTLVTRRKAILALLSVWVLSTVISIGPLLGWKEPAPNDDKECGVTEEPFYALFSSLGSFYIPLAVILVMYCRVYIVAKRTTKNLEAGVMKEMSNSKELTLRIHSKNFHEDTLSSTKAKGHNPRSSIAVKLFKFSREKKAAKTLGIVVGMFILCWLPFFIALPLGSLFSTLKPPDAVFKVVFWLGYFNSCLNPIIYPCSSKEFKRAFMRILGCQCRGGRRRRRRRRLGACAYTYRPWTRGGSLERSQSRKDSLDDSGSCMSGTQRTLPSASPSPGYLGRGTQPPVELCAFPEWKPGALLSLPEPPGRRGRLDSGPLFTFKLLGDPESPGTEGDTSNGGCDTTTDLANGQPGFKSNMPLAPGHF
Procedure: To evaluate in radioligand binding assays the activity of compounds of the invention, rat adrenergic α1B receptor obtained from Wistar Rat liver (Garcia-S'ainz, J. et al, Biochem. Biophys. Res. Commun. 186:760, 1992; Michel, A. et al, Br. J. Pharmacol. 98:883, 1989) in a modified Tris-HCl buffer (50 mM Tris-HCl buffer, pH 7.4, 0.5 mM EDTA) was used. Compounds of the invention were incubated with 0.25 nM [^3H]Prazosin for 60 min at 25° C. Non-specific binding was estimated in the presence of 10 μM phentolamine. Receptor proteins were filtered and washed, the filters were then counted to determine [^3H]Prazosin specifically bound. Compounds were screened at 1 μM or lower, using 1% DMSO as vehicle. Compounds of the invention were tested in this biochemical assay and percent inhibition of specific binding was determined. Biochemical assay results are presented as the percent inhibition of specific binding in Tables B1A-B1D.

SMILES	inhibition at 0.1 µM [1]	inhibition at 0.1 µM [2]	inhibition at 0.1 µM [3]
Cc1cc(/C=C/c2ccc(C)nc2)c2c(c1)c1c(n2C)CCN(C)C1 [A14]	-9%	12%	0%
C#Cc1cc(C)cc2c3c(n(C)c12)CCN(C)C3 [A10]	26%	23%	11%
C/C(=C\c1cc(C)cc2c3c(n(C)c12)CCN(C)C3)c1ccncc1 [A11]	-1%	4%	-1%
Cc1ccc(C#Cc2cc(Cl)cc3c4c(n(C)c23)CCN(C)C4)cn1 [A18]	34%	6%	30%
C/C(=C\c1cc(C)cc2c3c(n(C)c12)CCN(C)C3)c1ccc(C)nc1 [A15]	5%	20%	0%
Cc1cc(C#Cc2ccc(C)nc2)c2c(c1)c1c(n2C)CCN(C)C1 [A12]	38%	-4%	2%
Cc1cc(C#Cc2cccs2)c2[nH]c3c(c2c1)CN(C)CC3 [A8]	3%	20%	-3%
Cc1cc(C#Cc2ccncc2)c2c(c1)c1c(n2C)CCN(C)C1 [A17]	-5%	14%	9%
Cc1cc(-c2ccncc2)c2c(c1)c1c(n2C)CCN(C)C1 [A9]	-1%	0%	-9%
Cc1cc(C#Cc2nccs2)c2[nH]c3c(c2c1)CN(C)CC3 [A16]	-2%	31%	1%
Cc1cc(CCc2ccc(C)nc2)c2c(c1)c1c(n2C)CCN(C)C1 [A13]	8%	-12%	-9%
Cc1cc(-c2ccc(F)cc2)c2c(c1)c1c(n2C)CCN(C)C1 [A7]	4%	10%	2%

More lines, now with the values ahead:

inhibition at 0.1 µM [1]	inhibition at 0.1 µM [2]	inhibition at 0.1 µM [3]	SMILES
0%	40%	0%	Cc1cc2c3c(c1)c1c(n3CC(C)(c3ccncc3)OC(C)C2)CCN(C)C1 (stereo not drawn) [B165]
15%	5%	6%	Cc1cc2c3c(c1)c1c(n3C[C@](C)(c3ccncc3)O[C@H]2C)CCN(C)C1 [B163]
-2%	14%	-6%	Cc1cc2c3c(c1)c1c(n3C[C@@](C)(c3ccncc3)O[C@H]2C)CCN(C)C1 [B162]
-5%	8%	16%	Cc1ccc2c(c1)c1c3n2CC(c2ccncc2)=CCC3(C)CN(C)C1 (stereo not drawn) [D11]
-6%	-1%	-3%	Cc1ccc2c(c1)c1c3n2C(c2ccccc2)=CCC3(C)CN(C)C1 (stereo not drawn) [D10]
15%	-1%	2%	Cc1cc2c3c(c1)c1c(n3CC(C)(c3ccc(C)nc3)OC(C)C2)CCN(C)C1 (stereo not drawn) [B160]
28%	75%	28%	Cc1cc2c3c(c1)c1c(n3C(c3ccccc3)C2)CCN(C)C1 (stereo not drawn) [B12]
-3%	5%	10%	Cc1ccc2c(c1)c1c3n2C(c2ccccc2)CCC3(C)CN(C)C1 (stereo not drawn) [D12]

Source: patent US20140303144A1, “COMPOUNDS AND METHODS OF TREATING HYPERTENSION” (Medivation Technologies, Inc., priority 2011, published 2014)
